Patent US20120316161A1, “NOVEL ANTIVIRAL COMPOUNDS” (KATHOLIEKE UNIVERSITEIT LEUVEN, priority 2009, published 2012)
Like-named read-outs stand apart in the source and are kept apart here.

Columns and labels:
[1] = target: T1, LEDGF-integrase interaction (His6-tagged HIV-1 integrase, flag-LEDGF/p75) (Human immunodeficiency virus type 1 group M subtype B, UniProt P04585); assay: AlphaScreen assay of LEDGF-integrase interaction inhibition; assay type: binding; details: compound at 100 μM
T1 construct: His6-tagged HIV-1 integrase; made in house
Experimental: The AlphaScreen assay was performed according to the manufacturer's protocol (Perkin Elmer, Benelux). Reactions were performed in 25 μl final volume in 384-well Optiwell™ microtiter plates (Perkin Elmer). The reaction buffer contained 25 mM Tris-HCl (pH 7.4), 150 mM NaCl, 1 mM MgCl2, 0.01% (v/v) Tween-20 and 0.1% (w/v) bovine serum albumin. His6-tagged integrase (300 nM final concentration) was incubated with the compounds for 30 min at 4° C. The compounds were added at varying concentrations spanning a wide range from 0.1 up to 100 μM. Afterwards 100 nM flag-LEDGF/p75 was added and incubation was prolonged for an additional hour at 4° C. Subsequently 5 μl of Ni-chelate—coated acceptor beads and 5 μl anti-flag donor beads were added to a final concentration of 20 μg/ml of both beads. Proteins and beads were incubated for 1 h at 30° C. in order to allow association to occur. Exposure of the reaction to direct light was omitted as much as possible and the emission of light from the acceptor beads was measured in the EnVision plate reader (Perkin Elmer, Benelux) and analyzed using the EnVision manager software. IN/DNA binding was analyzed in a similar setting using His6-tagged integrase (1 μM final concentration) and an oligodeoxynucleotide mimicking the IN ELISA oligonucleotide substrate (30 nM final concentration). Counterscreens with JPO2 or PogZ, respectively, were essentially performed as described previously. Expression and purification of recombinant proteins: His6-tagged HIV-1 integrase, 3xflag-tagged LEDGF/p75, MBP-JPO2 and MBP-PogZ were purified for AlphaScreen applications as described previously.

[2] = test system: MT-4 cells; assay: Cytotoxicity in mock-infected MT-4 cells (MTT); assay type: cell-based
Experimental: (§1) A rapid and automated assay procedure was used for the in vitro evaluation of anti-HIV agents. An HTLV-1 transformed T4-cell line MT-4, which was previously shown to be highly susceptible to and permissive for HIV infection, served as the target cell line. Inhibition of the HIV-induced cytopathogenic effect was used as the end point. The viability of both HIV-and mock-infected cells was assessed spectrophotometrically via in situ reduction of 3-(4,5-dimethylthiazol-2-yl)-2,5-diphenyltetrazolium bromide (MTT). […] The percent protection achieved by the compound in HIV-infected cells was calculated by the following formula: […]
(§2) whereby (ODT)HIV is the optical density measured with a given concentration of the test compound in HIV-infected cells; (ODC)HIV is the optical density measured for the control untreated HIV-infected cells; (ODC)MOCK is the optical density measured for the control untreated mock-infected cells; all optical density values were determined at 540 nm. […] The ratio of CC50 to EC50 was defined as the selectivity index (SI).

[3] = test system: HIV; assay: microbe, parasite or virus in culture; assay type: cell-based
Experimental: A rapid and automated assay procedure was used for the in vitro evaluation of anti-HIV agents. An HTLV-1 transformed T4-cell line MT-4, which was previously shown to be highly susceptible to and permissive for HIV infection, served as the target cell line. Inhibition of the HIV-induced cytopathogenic effect was used as the end point. The viability of both HIV-and mock-infected cells was assessed spectrophotometrically via in situ reduction of 3-(4,5-dimethylthiazol-2-yl)-2,5-diphenyltetrazolium bromide (MTT). The 50% cytotoxic concentration (CC50 in μg/ml) was defined as the concentration of compound that reduced the absorbance of the mock-infected control sample by 50%. The percent protection achieved by the compound in HIV-infected cells was calculated by the following formula: […]
whereby (ODT)HIV is the optical density measured with a given concentration of the test compound in HIV-infected cells; (ODC)HIV is the optical density measured for the control untreated HIV-infected cells; (ODC)MOCK is the optical density measured for the control untreated mock-infected cells; all optical density values were determined at 540 nm. The dose achieving 50% protection according to the above formula was defined as the 50% inhibitory concentration (EC50 in μg/ml or μM). The ratio of CC50 to EC50 was defined as the selectivity index (SI). […] Examples of inhibition of cell proliferation by particular compounds of the invention can be found by looking at the respective CC50 values in the MT-4 cell line. Cells: MT-4 cells (Miyoshi et al., 1982) were grown and maintained in RPMI 1640medium supplemented with 10% heat-inactivated fetal calf serum, 2 mM 1-glutamine, 0.1% sodium bicarbonate, and 20æg of gentamicin per ml.
Viruses: The HIV-1 (NL4.3) strain (Adachi et al., 1986) is a molecular clone obtained from the National Institutes of Health (Bethesda, Md.). The HIV-2 (ROD) (Barr, -Sinoussi et al., 1983) stock was obtained from culture supernatant of HIV-2 infected cell lines.

[4] = Cytotoxicity in mock-infected MT-4 cells (MTT); assay type: cell-based; details: human, mock-infected MT-4 cells
Experimental: as §1, §2

[5] = mock-infected MT-4 cells, read-out: CC50
[6] = 50% protection of HIV-infected MT-4 cells, read-out: EC50
[7] = Human immunodeficiency virus 1, MT4, 50% protection of HIV-infected MT-4 cells, read-out: EC50
[8] = Human immunodeficiency virus 1, MT4

## 2-[2-tert-butyl-7-(1,2-dihydroacenaphthylen-5-yl)-5-methylpyrazolo[1,5-a]pyrimidin-6-yl]acetic acid [CPD-111]
[1]
  Alpha screen % (100 μM): 89%
[2]; [5]
  CC50: 50 µM

## 2-[2-tert-butyl-7-(1,2-dihydroacenaphthylen-5-yl)-5-methylpyrazolo[1,5-a]pyrimidin-6-yl]acetic acid [CPD-112]
[1]
  Alpha screen % (100 μM): 93%
[2]; [5]
  CC50: 59 µM

## 2-[2-tert-butyl-7-(2-hydroxy-4-methylphenyl)-5-methylpyrazolo[1,5-a]pyrimidin-6-yl]acetic acid [CPD-117]
[1]
  Alpha screen % (100 μM): 95%
[3]; [6]
  EC50: 2.06 µM
[2]; [5]
  CC50: 116 µM

## COCCC(C(=O)O)c1c(C)nc2cc(C(C)(C)C)nn2c1-c1ccc(C)cc1 (stereo not drawn) [CPD-88, 2-(2-tert-butyl-7-p-tolyl-5-methylpyrazolo[1,5-a]pyrimidin-6-yl)-4-methoxybutanoic acid]
[1]
  Alpha screen % (100 μM): 44%
[3]; [7]
  EC50: 38 µM
[4]
  CC50: > 250 µM

## CCCC(C(=O)O)c1c(C)nc2cc(C(C)(C)C)nn2c1-c1ccc(C(C)C)cc1 (stereo not drawn) [CPD-89, 2-(2-tert-butyl-5-methyl-7-(4-iso-propylphenyl)pyrazolo[1,5-a]pyrimidin-6-yl)pentanoic acid]
[1]
  Alpha screen % (100 μM): 89%
[3]; [8]
  EC50: 24 µM
[4]
  CC50: 139 µM

## CCCC(C(=O)O)c1c(C)nc2cc(C(C)(C)C)nn2c1-c1ccc(C(F)(F)F)cc1 (stereo not drawn) [CPD-90, 2-(2-tert-butyl-5-methyl-7-(4-trifluoromethylphenyl)pyrazolo[1,5-a]pyrimidin-6-yl)pentanoic acid]
[1]
  Alpha screen % (100 μM): 70%
[3]; [7]
  EC50: 6.15 µM
[4]
  CC50: 22 µM

## CCCC(C(=O)O)c1c(C)nc2cc(C(C)(C)C)nn2c1-c1ccc(F)cc1F (stereo not drawn) [CPD-91, 2-(2-tert-butyl-7-(2,4-difluorophenyl)-5-methylpyrazolo[1,5-a]pyrimidin-6-yl)pentanoic acid]
[1]
  Alpha screen % (100 μM): 90%
[3]; [7]
  EC50: 15.7 µM
[4]
  CC50: 85.5 µM

## CCCC(C(=O)O)c1c(C)nc2cc(C(C)(C)C)nn2c1-c1ccc(C)cc1Cl (stereo not drawn) [CPD-92, 2-(2-tert-butyl-7-(2-chloro-4-methylphenyl)-5-methylpyrazolo[1,5-a]pyrimidin-6-yl)pentanoic acid]
[1]
  Alpha screen % (100 μM): 95%
[3]; [7]
  EC50: 9.13 µM
[4]
  CC50: 60.5 µM

## CCCC(C(=O)O)c1c(C)nc2cc(C(C)(C)C)nn2c1-c1ccc(C)cc1N (stereo not drawn) [CPD-93, 2-(7-(2-amino-4-methylphenyl)-2-tert-butyl-5-methylpyrazolo[1,5-a]pyrimidin-6-yl)pentanoic acid]
[1]
  Alpha screen % (100 μM): 90%
[3]; [8]
  EC50: 7.4 µM
[4]
  CC50: 119 µM

## CCCC(C(=O)O)c1c(C)nc2cc(C(C)(C)C)nn2c1-c1ccc(OC)cc1F (stereo not drawn) [CPD-95, 2-(2-tert-butyl-7-(2-fluoro-4-methoxyphenyl)-5-methylpyrazolo[1,5-a]pyrimidin-6-yl)pentanoic acid]
[1]
  Alpha screen % (100 μM): 83%
[3]; [7]
  EC50: 7.48 µM
[4]
  CC50: 115 µM

## CCCC(C(=O)O)c1c(C)nc2cc(C(C)(C)C)nn2c1-c1ccc(C)cc1C (stereo not drawn) [CPD-98, 2-(2-tert-butyl-7-(2,4-dimethylphenyl)-5-methylpyrazolo[1,5-a]pyrimidin-6-yl)pentanoic acid]
[1]
  Alpha screen % (100 μM): 89%
[3]; [8]
  EC50: 5.91 µM
[4]
  CC50: 69 µM

## CCCC(C(=O)O)c1c(C)nc2c(C)c(C(C)(C)C)nn2c1-c1ccc(C)cc1 (stereo not drawn) [CPD-99, 2-(2-tert-butyl-3,5-dimethyl-7-p-tolylpyrazolo[1,5-a]pyrimidin-6-yl)pentanoic acid]
[1]
  Alpha screen % (100 μM): 81%
[3]; [7]
  EC50: 1.01 µM
[4]
  CC50: 34 µM

## CCCC(C(=O)O)c1c(C)nc2c(-c3ccccc3)c(C(C)(C)C)nn2c1-c1ccc(C)cc1 (stereo not drawn) [CPD-100, 2-(2-tert-butyl-5-methyl-3-phenyl-7-p-tolylpyrazolo[1,5-a]pyrimidin-6-yl)pentanoic acid]
[1]
  Alpha screen % (100 μM): 92%
[3]; [7]
  EC50: 6.24 µM
[4]
  CC50: 23 µM

## Ethyl 2-(2-benzyl-5-methyl-7-p-tolyl-[1,2,4]-triazolo[1,5-a]pyrimidin-6-yl)pentanoate [CPD-123]
[3]; [6]
  EC50: 26.1 µM
[2]
  CC50: 126 µM
